Data on five compounds can be found in paper doi:10.1101/2025.07.09.663793, “Activating and inhibiting nucleotide signals coordinate bacterial anti-phage defense” (bioRxiv, 2025).

For experiment [1], the target named is T1, CloA (SeCloA) (Salmonella enterica, UniProt A0A5H6DAK1, H126A/E129A).
T1 construct: gene dgt; CloA^HEAA, octamer
The experiment can be described thus: […] Å cryo-EM structure of CloA–dGTP–dTTP. The class given is binding.

The target in experiment [2] is T2, CloA (SeCloA).
T2 construct: wild-type CloA
The experiment in a line: activation of purified CloA dGTPase, phosphate release and LC-MS. The class given is biochemical, Salmonella enterica.

The target in experiment [3] is T2, CloA (SeCloA). The experiment can be described thus: inhibition of purified CloA dGTPase, phosphate release (malachite green). The experiment is classed as biochemical, Salmonella enterica.
The target in experiment [4] is Salmonella enterica SA20044414 Clover protein A (CloA), wild type (Salmonella enterica SA20044414). The experiment in a line: cryo-EM structure; apo Salmonella CloA, 1 mg/mL, vitrified at 4°C; C4 symmetry.
The target of experiment [5] is Shewanella putrefaciens CN-32 dGTPase (Shewanella putrefaciens CN-32). The experiment can be described thus: crystal structure; SpdGTPase at 10 mg/mL in 20 mM HEPES-KOH pH 7.5, 100 mM KCl; hanging drop, 18°C; reservoir 0.2 M magnesium chloride, 0.1 M HEPES-NaOH pH 7.5, 30% PEG-400.
Experiment [6] has as its target T3, CloA (SeCloA).
T3 construct: full-length CloA from S. enterica SA20044414, octamer
The experiment in a line: […] Å cryo-EM of CloA co-expressed with CloB; LC-MS of released ligand; dGTPase inhibition (malachite green). The class given is biochemical, Salmonella enterica.

In the case of `Cc1cn([C@H]2C[C@H](O)[C@@H](COP(=O)(O)OP(=O)(O)OP(=O)(O)O)O2)c(=O)[nH]c1=O` [dTTP], in experiment [1], the “2.6 Å cryo-EM structure of CloA-dGTP-dTTP” value is given as “In the CloA–dGTP–dTTP active state structure, dTTP is bound at the CloAAB interface in an adjacent pocket”. For the same compound, the EC50 in experiment [2] was roughly 15 µM.

For `Cc1cn([C@H]2C[C@H](OP(=O)(O)OC[C@H]3O[C@@H](n4cc(C)c(=O)[nH]c4=O)C[C@@H]3O)[C@@H](COP(=O)(O)OP(=O)(O)O)O2)c(=O)[nH]c1=O` [p2diT], the IC50 in experiment [3] is roughly 20.9 µM.

In the case of “Salmonella enterica SA20044414 Clover protein A (CloA), wild type (enzyme)”, the stoichiometry N in experiment [4] was determined as 8.

Compound “Shewanella putrefaciens CN-32 dGTPase (enzyme)” showed a stoichiometry N in experiment [5] of 6.

On to `Cc1cn([C@H]2C[C@H](OP(=O)(O)OC[C@H]3O[C@@H](n4cc(C)c(=O)[nH]c4=O)C[C@@H]3O)[C@@H](COP(=O)(O)OP(=O)(O)OP(=O)(O)O)O2)c(=O)[nH]c1=O` [p3diT, 5′-triphosphothymidyl-3′5′-thymidine], for which the IC50 in experiment [6] was roughly 7.6 µM.
